Like-named read-outs stand apart in the source and are kept apart here.
Key:
[1] = system: MOLM14; type: cell-based; settings: Homo sapiens
[2] = system: MOLM14-D835Y; type: cell-based
[3] = system: K562; type: cell-based; settings: Homo sapiens
[4] = system: KCL22; type: cell-based; settings: Homo sapiens
[5] = system: KCL22-IR; type: cell-based; settings: read-out: IC50 KCL22-IR
[6] = system: MV-4-11; type: cell-based; settings: Homo sapiens
[7] = system: MOLM13-res; type: cell-based; settings: read-out: IC50 MOLM13-res
[8] = system: MOLM14-F691L; type: cell-based; settings: Homo sapiens
[9] = system: H520; type: cell-based; settings: Homo sapiens
[10] = system: LC2/Ad; assay: cells; settings: Homo sapiens, LC-2-ad, read-out: IC50 LC2/Ad
[11] = target: c-SRC (Homo sapiens, UniProt P12931); assay: Kinase IC50 at Reaction Biology; type: biochemical
[12] = cell activities of other nicotinamide compounds, MOLM-14, read-out: IC50 MOLM-14
[13] = Homo sapiens, cell activities of other nicotinamide compounds, MOLM-14 (ITD, D85Y), read-out: IC50 MOLM-14 (ITD, D85Y)
[14] = cell activities of other nicotinamide compounds, K562, read-out: IC50 K562
[15] = KCL-22, cell activities of other nicotinamide compounds, KCL22, read-out: IC50 KCL22
[16] = cell activities of other nicotinamide compounds, KCL22-IR
[17] = cell activities of other nicotinamide compounds, MOLM-14 (ITD, F691L), read-out: IC50 MOLM-14 (ITD, F691L)

Chain of c-SRC (P12931 whole entry): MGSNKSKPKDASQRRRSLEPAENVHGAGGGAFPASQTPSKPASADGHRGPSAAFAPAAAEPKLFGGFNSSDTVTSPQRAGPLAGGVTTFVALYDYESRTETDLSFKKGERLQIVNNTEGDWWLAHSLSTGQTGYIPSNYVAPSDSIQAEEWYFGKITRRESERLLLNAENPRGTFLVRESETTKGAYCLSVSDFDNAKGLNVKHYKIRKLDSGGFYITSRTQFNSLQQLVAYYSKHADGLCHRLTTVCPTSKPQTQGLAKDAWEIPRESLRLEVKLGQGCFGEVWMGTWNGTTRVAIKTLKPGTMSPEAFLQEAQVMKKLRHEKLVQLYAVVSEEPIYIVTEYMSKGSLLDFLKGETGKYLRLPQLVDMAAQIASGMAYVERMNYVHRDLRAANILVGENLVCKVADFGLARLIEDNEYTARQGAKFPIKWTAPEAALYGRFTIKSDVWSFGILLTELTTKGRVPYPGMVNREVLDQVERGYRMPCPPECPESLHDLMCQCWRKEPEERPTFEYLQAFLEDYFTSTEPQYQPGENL

| SMILES | IC50 [1, 12] | IC50 [2, 13] | IC50 [3, 14] | IC50 [4, 15] | IC50 [5, 16] | IC50 [8, 17] | also measured |
| --- | --- | --- | --- | --- | --- | --- | --- |
| Cc1ccc(C(=O)Nc2ccc(CN3CCN(C)CC3)c(C(F)(F)F)c2)cc1C#Cc1cnc2cccnn12 [Ponatinib, reference compound] | – | – | – | – | – | – | IC50 ([6]; MV4-11, read-out: IC50 MV-4-11): 0.09 nM; IC50 [7]: 24.1 nM; IC50 ([1]; MOLM-14, read-out: IC50 MOLM14): 0.45 nM; IC50 ([2]; read-out: IC50 MOLM14-D835Y): 52.6 nM; IC50 ([8]; MOLM-14, read-out: IC50 MOLM14-F691L): 6.8 nM; IC50 ([3]; K562, read-out: IC50 K562): 0.6 nM; IC50 ([4]; KCL-22, read-out: IC50 KCL22): 0.14 nM; IC50 [5]: 0.66 nM; IC50 ([9]; NCI-H520, read-out: IC50 H520): 128 nM; IC50 [10]: 35.1 nM |
| CN1CCN(Cc2ccc(NC(=O)c3cncc(C#Cc4cnc5ncccn45)c3)cc2C(F)(F)F)CC1 [HSL382, 5-(imidazo[1,2-a]pyrimidin-3-ylethynyl)-N-(4-((4-methylpiperazin-1-yl)methyl)-3-(trifluoromethyl)phenyl)nicotinamide] | 5.15 ± 0.09 nM | > 100 nM | > 100 nM | > 100 nM | > 100 nM | > 100 nM | – |
| CN1CCN(Cc2ccc(NC(=O)c3cncc(C#Cc4cnc5ccnn5c4)c3)cc2C(F)(F)F)CC1 [HSL412, N-(4-((4-methylpiperazin-1-yl)methyl)-3-(trifluoromethyl)phenyl)-5-(pyrazolo[1,5-a]pyrimidin-6-ylethynyl)nicotinamide] | – | > 100 nM | 28.1 ± 0.6 nM | 28.1 ± 0.4 nM | – | 17.8 ± 1.3 nM | – |
| CN1CCN(Cc2ccc(NC(=O)c3cncc(C#Cc4cncc5nccn45)c3)cc2C(F)(F)F)CC1 [HSL407, 5-(imidazo[1,2-a]pyrazin-5-ylethynyl)-N-(4-((4-methylpiperazin-1-yl)methyl)-3-(trifluoromethyl)phenyl)nicotinamide] | – | 42.9 ± 0.7 nM | 1.83 ± 0.02 nM | 2.93 ± 0.04 nM | 49.7 ± 2.5 nM | 6.87 ± 0.13 nM | – |
| CN1CCN(Cc2ccc(NC(=O)c3cncc(C#Cc4cnc5cccnn45)c3)cc2C(F)(F)F)CC1 [HSN748, 5-(imidazo[1,2-b]pyridazin-3-ylethynyl)-N-(4-((4-methylpiperazin-1-yl)methyl)-3-(trifluoromethyl)phenyl)nicotinamide] | – | – | – | – | – | – | IC50 ([11]; [ATP] = 100 μM, read-out: IC50 c-SRC): > 1000 nM; IC50 ([11]; read-out: IC50 c-Src kinase): > 1000 nM; IC50 ([6]; MV4-11, growth inhibition, MV-4-11 (FLT3) cell line, read-out: IC50 MV-4-11): 0.07 nM; IC50 ([7]; growth inhibition, MOLM13-res cell line): 1.73 nM; IC50 ([1]; MOLM-14, growth inhibition, MOLM14 cell line, read-out: IC50 MOLM14): 0.05 nM; IC50 ([2]; growth inhibition, quizartinib-resistant AML cell line, read-out: IC50 MOLM14-D835Y): 0.69 nM; IC50 ([8]; MOLM-14, growth inhibition, gilteritinib-resistant AML cell line Molm14 (ITD, F691L), read-out: IC50 MOLM14-F691L): 0.18 nM; IC50 ([3]; growth inhibition, K562 (ABL1) cell line, read-out: IC50 K562): 0.8 nM; IC50 ([4]; KCL-22, growth inhibition, KCL22 cell line, read-out: IC50 KCL22): 1.32 nM; IC50 ([5]; growth inhibition, KCL22-IR cell line): 0.23 nM; IC50 ([9]; NCI-H520, growth inhibition, H520 cell line, read-out: IC50 H520): 839 nM |

Further molecules by falling IC50 [2, 13], results first:

| IC50 [1, 12] | IC50 [2, 13] | IC50 [3, 14] | IC50 [4, 15] | IC50 [5, 16] | IC50 [8, 17] | SMILES | also measured |
| --- | --- | --- | --- | --- | --- | --- | --- |
| 0.15 ± 0.007 nM | 28.5 ± 0.9 nM | 0.94 ± 0.002 nM | 2.62 ± 0.06 nM | 17.2 ± 0.8 nM | – | CN1CCN(Cc2ccc(NC(=O)c3cncc(C#Cc4cnc5cnccn45)c3)cc2C(F)(F)F)CC1 [HSL385, 5-(imidazo[1,2-a]pyrazin-3-ylethynyl)-N-(4-((4-methylpiperazin-1-yl)methyl)-3-(trifluoromethyl)phenyl)nicotinamide] | – |
| 0.075 ± 0.0005 nM | 7.4 ± 0.04 nM | 0.45 ± 0.002 nM | 1.4 ± 0.02 nM | 4.2 ± 0.04 nM | – | CN1CCN(Cc2ccc(C(=O)Nc3cncc(C#Cc4cnc5cccnn45)c3)cc2C(F)(F)F)CC1 [HSL338, N-(5-(imidazo[1,2-b]pyridazin-3-ylethynyl)pyridin-3-yl)-4-((4-methylpiperazin-1-yl)methyl)-3-(trifluoromethyl)benzamide] | – |
| 0.04 ± 0.006 nM | 7.12 ± 0.06 nM | 0.57 ± 0.003 nM | 0.89 ± 0.005 nM | 4.24 ± 0.05 nM | 0.55 ± 0.06 nM | CN1CCN(Cc2ccc(NC(=O)c3cncc(C#Cc4cnc5ccccn45)c3)cc2C(F)(F)F)CC1 [HSL381, 5-(imidazo[1,2-a]pyridin-3-ylethynyl)-N-(4-((4-methylpiperazin-1-yl)methyl)-3-(trifluoromethyl)phenyl)nicotinamide] | – |
| – | 2.24 ± 0.08 nM | 0.059 ± 0.002 nM | 0.06 ± 0.002 nM | 0.46 ± 0.01 nM | 0.57 ± 0.004 nM | Cc1ncc(C(=O)Nc2ccc(CN3CCN(C)CC3)c(C(F)(F)F)c2)cc1C#Cc1cnc2cccnn12 [HSL420, 5-(imidazo[1,2-b]pyridazin-3-ylethynyl)-6-methyl-N-(4-((4-methylpiperazin-1-yl)methyl)-3-(trifluoromethyl)phenyl)nicotinamide] | – |
